Experimental data reported in patent US12084422B2, “Phenyl-n-quinoline derivatives for treating a RNA virus infection” (ABIVAX, priority 2018, dated 2024).

What was measured:
RSV A2 = experiment: Screening for RSV inhibition using Viral ToxGlo assay in HEp-2 cells; type: cell-based; details: human respiratory syncytial virus, HEp-2, 72 h
Protocol: Protocol for Screening Antiviral Compounds for RSV Inhibition and Cytotoxicity Using Viral ToxGlo Assay
HEp-2 cells were maintained in Eagle's minimum essential medium (EMEM) with Earle's BSS adjusted to contain 2 mM L-glutamine, 10% fetal bovine serum, 100 U/ml penicillin and 100 μg/ml streptomycin. For the purposes of the screening assay they were grown to 90% confluency, trypsinized and recovered. The trypsin was neutralised with cell culture media and cells were centrifuged at 150×g for 5 minutes before discarding the supernatant and resuspending cell pellet in assay media (EMEM with Earle's BSS adjusted to contain 2 mM L-glutamine, 2% fetal bovine serum and 100 U/ml penicillin and 100 μg/ml streptomycin). The cells were seeded into white clear-bottomed cell culture plates at a density of 1.5×10^4 cells/well in 50 μl and 4×10^3 cells/well in 25 μl for 96 well plates and 384 well plates respectively. For the media/background control column assay media only was added. Cell plates were placed in a humid chamber and incubated overnight at 37° C./5% CO2. After overnight incubation cells were checked for confluency and healthy appearance.
Test articles were made up at 10× test concentration in a maximum DMSO concentration of 10% (final assay concentration maximal 1% DMSO) and added to the cell plates in volumes of 10 μl for 96 well plates and 5 μl for 384 well plates. For cell control and virus control wells the test article solvent only was added. Virus or assay media for cytotoxicity test wells and media/cell control wells was added immediately after test articles at an MOI of 0.5, 40 or 20 μl for 96 and 384 well plates respectively. Virus suspension was prepared by thawing RSV A2 frozen stocks and diluting to the required concentration of plaque forming units in assay media on ice.
(§1) Cell plates were further incubated inside a humid chamber for 72 h p.i at 37° C./5% CO2. After the incubation period cells were observed under the microscope to check for characteristic cytopathic effect in virus control wells and healthy cells in the cell control wells. After plates were adjusted to room temperature 20/40 μl Viral ToxGlo (Promega) was added to each well of the 384/96 well cell plates. Plates were incubated at room temperature, protected from light on a plate rocker for 20 minutes before measuring the luminescence on a spectrophotometer (Biotek Synergy HTX).
RSV inhibition was calculated as percentage of cytopathic effect inhibition relative to the virus control and cytotoxicity as percentage of cell survival relative to cell control wells. This allowed EC50 values to be calculated for each test article where a virus inhibition or cytotoxic dose response was identified. EC50 values ranging between 0.001 µM and 5 μM could thus be determined for compounds 1, 6, 10, 13, 28, 38, 43, 47, 48, 49, 50, 51, 52, 53, 54, 55, 56 and 57.

DENV-2 strain 16681 = experiment: Screening for DENV-2 inhibition using Viral ToxGlo assay in A549 cells; type: cell-based, Dengue 2 virus; details: Dengue virus, DENV2, A549, 120 h, read-out: % DENV-2 Inhibition Mean (n = 3)
Protocol: Protocol for Screening Antiviral Compounds for DENV-2 Inhibition and Cytotoxicity Using Viral ToxGlo Assay
A549 cells were maintained in Dulbecco's Modified Eagle Medium (DMEM) supplemented with 10% fetal bovine serum, 100 U/ml penicillin and 100 μg/ml streptomycin. For the purposes of the screening assay they were grown to 90% confluency, trypsinized and recovered. The trypsin was neutralised with cell culture media and cells were centrifuged at 150×g for 5 minutes before discarding the supernatant and resuspending cell pellet in assay media (DMEM supplemented with 2% fetal bovine serum and 100 U/ml penicillin and 100 μg/ml streptomycin). The cells were seeded into 96-well white clear-bottomed cell culture plates at a density of 1.0×10^4 cells/well in 50 μl. For the media/background control column assay media only was added. Cell plates were placed in a humid chamber and incubated overnight at 37° C./5% CO2. After overnight incubation cells were checked for confluency and healthy appearance.
Test compounds were prepared at a final concentration of 10 μM, in a maximum DMSO concentration of 1% (final assay concentration maximal 0.1% DMSO) and added to the cell plates in volumes of 10 μl. For cell control and virus control wells the test article solvent only was added. As a positive inhibition control, 7-Deaza-2′-C-methyladenosine was added at 100 μM in 3 wells. Virus (DENV-2 strain 16681) or assay media for cytotoxicity test wells and media/cell control wells was added immediately after test articles at an MOI of 0.5, 40 for 96 well plates respectively. Virus suspension was prepared by thawing DENV-2 frozen stocks and diluting to the required concentration of plaque forming units in assay media.
as §1, with “5 days” for “72 h”, “20” for “20/40”, “96-well” for “384/96 well”, “temperature” for “temperature, protected from light on a plate rocker”, “5” for “20”, “(Envision, PerkinElmer).” for “(Biotek Synergy HTX).”
DENV-2 inhibition was calculated as percentage of cytopathic effect inhibition relative to the virus control and cytotoxicity as percentage of cell survival relative to cell control wells.

[1] = tested on: Chikungunya Virus (CHIKV) strain LR2006-OPY1 with GFP modification (CHIK 5'LR); experiment: Inhibition of Chikungunya virus (CHIKV) production in infected HEK293T cell line (GFP fluorescence); type: cell-based; details: HEK-293T, infected HEK293T cells; for inhibition at 1 µM: compounds at 1 μM, MOI 0.1, 22 h, values above 100 lowered to 100, read-out: % CHIKV Inhibition Mean (n = 2); for IC50: second round of experiments
Protocol: The ability of the compounds to inhibit viral replication was assessed with an experiment in which infected cells were treated by compounds of formula (I) at 1 μM. As a positive control for inhibition of Chikungunya, Ribavirin was used. Toxicity of the compounds was assessed in parallel.
Human embryonic kidney cells 293T (HEK293T, CRL-11268) were maintained in Dulbecco's modified Eagle's Medium (DMEM, 31966-021, Thermo Fisher Scientific) supplemented with 10% of fetal bovine serum (FBS), penicillin and streptomycin. After removal of the medium, cells were washed with a Ca^2+- and Mg^2+-free salt solution to remove all traces of serum. After aspiration of wash solution, cells were dissociated with 0.25% Trypsin-EDTA solution and incubated 30 s at least in 37° ° C. incubator. Concentration of cell suspension was determined by an automatic cell counter (EVE, NanoEntek) and, if needed, adjusted to 0.33×10^6 cells/mL with DMEM medium supplemented with 10% FBS.
100 μL of the cell suspension were dispatched in a ViewPlate-96 Black (6005182, PerkinElmer) and in a transparent 96-well cell culture plate (655180, Greiner bio-one). After an incubation for 24 h at 37° C. under 5% of CO2, compounds were added at the proper concentration.
An intermediate dilution was prepared with DMSO (D8418, Sigma) at 2 mM in a 96-well V-bottom microplate from the stock solution:
Mix 1 μL of the 50 mM stock library in 25 μL of DMSO.
Mix 2 μL of the 25 mM stock library in 25 μL of DMSO.
An intermediate dilution was prepared with DMSO (D8418, Sigma) at 25 mM in a 96-well V-bottom microplate from the stock solution:
Mix 2 μL of the 50 mM stock library in 2 μL of DMSO.
Serial dilutions were performed in 2 μL of DMSO 13 times to reach 0.0015 mM as follows in table III:
For both screen and determination of IC50 1 μL of each solution was added in a 1 mL Masterblock 96 wells (Greiner bio-one, 780261) containing 1 mL of DMEM medium. As a positive control, 5 μL of a 80 mM Ribavirin solution (R9644, Sigma) is added to 1 mL of DMEM. On the other hand, DMSO is used as a negative control.
[…]. Vector Borne Zoonotic Dis. 2006; 6(4)). This modified virus was used to infect cells at MOI 0.1. […].
Medium was removed after 22 h at 37° ° C. under 5% of CO2 and cells were washed as described above. 60 μL of RIPA buffer (50 mM Tris-HCl pH8, 100 mM NaCl, 1 mM MgCl2, 1% Triton X-100) was added to cells and incubated for at least 20 min before reading fluorescence signal. Pierce 660 nm Protein Assay Reagent (22660, Thermo scientific) was used to normalize fluorescence signal by protein quantity.
A first round of experiments has been performed wherein the results are expressed as inhibition percentage, which is calculated as follows, through the following steps:
1. Fluorescence intensity (FI) 509 nm/Absorbance 660 nm (A660)=A
This ratio allows considering the infection (GFP virus) to the protein amount.
2. A′=A—background noise of non-infected plate,
3. B=Fluorescence intensity (FI)/Absorbance 660 nm (A660) of infected but non treated plates,
4. C=A′/B which is then converted as the percentage of infection after treatment, compared to non-treated sample, and subsequently as the […]. For instance, a value of 100 in Table IV here below means that, after treatment, the signal attributed to GFP fluorescence is abolished, which is correlated to the absence of infection.
This value corresponds to the inhibition's percentage.
The following Table IV encompasses said C′ value for some compounds as calculated above with a mean of 2 experiments, and the corresponding standard deviation.
Some values were originally above 100. In these cases, the value has been lowered to 100. This means that some molecules also have an impact on the viability of the cells. In other words, the A value may be lower than the background noise.
Moreover, for each measure, the test was performed with Ribavirin as control. The value of the inhibition percentage was checked, giving 100%.

Row | SMILES | EC50 (RSV A2) | inhibition at 10 µM (DENV-2 strain 16681) | inhibition at 1 µM [1] | IC50 [1]
1 | Cc1cc(Oc2cccc3ccccc23)ccc1Nc1ccc2cccc(Cl)c2n1 [Compound 54, 8-chloro-N-(2-methyl-4-(naphthalen-1-yloxy)phenyl)quinolin-2-amine] | 0.094 µM | 69% | – | –
2 | Cc1cc(OCc2ccccc2)ccc1Nc1ccc2cccc(Cl)c2n1 [Compound 47, N-(4-(benzyloxy)-2-methylphenyl)-8-chloroquinolin-2-amine] | 0.42 µM | 82% | – | –
3 | CCCc1cc(OC(F)(F)F)ccc1Nc1ccc2cccc(Cl)c2n1 [Compound 6, 8-chloro-N-(2-propyl-4-(trifluoromethoxy)phenyl)quinolin-2-amine] | 1.21 µM | – | 100% | 0.001 to 0.2 µM
4 | Cc1cc(Oc2ccccc2F)ccc1Nc1ccc2ccccc2n1 [Compound 38, N-(4-(2-fluorophenoxy)-2-methylphenyl)quinolin-2-amine] | 0.2 µM | – | 98% | 0.001 to 0.2 µM
5 | Cc1cc(OC(F)(F)F)ccc1Nc1ccc2cccc(Cl)c2n1 [Compound 1, 8-chloro-N-(2-methyl-4-(trifluoromethoxy)phenyl)quinolin-2-amine] | 3.31 µM | – | 97% | –
6 | Cc1c(Nc2ccc3cccc(Cl)c3n2)cccc1Oc1ccccc1 [Compound 55, 8-chloro-N-(2-methyl-3-phenoxyphenyl)quinolin-2-amine] | 0.192 µM | – | – | –
7 | COc1ccc(Oc2ccc(Nc3ccc4ccccc4n3)c(C3CC3)c2)c(F)c1 [Compound 52, N-(2-cyclopropyl-4-(2-fluoro-4-methoxyphenoxy)phenyl)quinolin-2-amine] | 0.344 µM | – | – | –
8 | Cc1cc(Oc2ccc(O)cc2F)ccc1Nc1ccc2ccccc2n1 [Compound 53, 3-fluoro-4-(3-methyl-4-(quinolin-2-ylamino)phenoxy)phenol] | 0.196 µM | – | – | –
9 | Cc1c(Nc2ccc3cccc(Cl)c3n2)cccc1OCc1ccccc1 [Compound 50, N-(3-(benzyloxy)-2-methylphenyl)-8-chloroquinolin-2-amine] | 0.283 µM | – | – | –
10 | COc1ccc(Oc2ccc(Nc3ccc4ccccc4n3)c(C)c2)cc1 [Compound 51, N-(4-(4-methoxyphenoxy)-2-methylphenyl)quinolin-2-amine] | 0.412 µM | – | – | –
11 | Cc1c(Nc2ccc3cccc(Cl)c3n2)cccc1OC(C)C [Compound 49, 8-chloro-N-(3-isopropoxy-2-methylphenyl)quinolin-2-amine] | 0.513 µM | – | – | –
12 | Cc1cc(Oc2ccccc2)ccc1Nc1ccc2cccc(Cl)c2n1 [Compound 56, 8-chloro-N-(2-methyl-4-phenoxyphenyl)quinolin-2-amine 2,2,2-trifluoroacetate] | 0.132 µM | 76% | – | –
